Reference: ChEMBL document CHEMBL1909046, “DrugMatrix in vitro pharmacology data”

Legend:
[1] = target: T1, Alpha-1A adrenergic receptor (Rattus norvegicus, UniProt P43140); assay: DRUGMATRIX: Alpha-1A adrenergic receptor radioligand binding (ligand: prazosin); format: cell membranes, Wistar, Submaxillary gland, Membrane; conditions: Not Active = under 50% inhibition at 10 µM; for Ki: read-out: Ki
T1 sequence (P43140 whole entry): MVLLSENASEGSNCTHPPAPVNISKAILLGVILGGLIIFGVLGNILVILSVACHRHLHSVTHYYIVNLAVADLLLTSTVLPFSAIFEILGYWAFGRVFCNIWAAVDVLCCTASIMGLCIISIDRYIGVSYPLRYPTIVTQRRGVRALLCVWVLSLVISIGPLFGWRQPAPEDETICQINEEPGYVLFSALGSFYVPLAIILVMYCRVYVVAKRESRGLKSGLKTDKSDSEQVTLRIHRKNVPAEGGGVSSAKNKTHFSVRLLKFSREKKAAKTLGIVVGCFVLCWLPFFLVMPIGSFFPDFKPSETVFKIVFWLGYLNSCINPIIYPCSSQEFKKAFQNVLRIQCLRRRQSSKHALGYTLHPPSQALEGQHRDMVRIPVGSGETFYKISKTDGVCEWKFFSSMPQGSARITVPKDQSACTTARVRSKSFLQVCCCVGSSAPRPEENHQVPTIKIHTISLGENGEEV

[2] = DRUGMATRIX: ATPase, Na+/K+ enzyme inhibition (substrate: ATP); format: tissue-based, Sus scrofa, Heart; conditions: Not Active = under 50% inhibition at 10 µM
[3] = target: T2, Calcitonin receptor (Homo sapiens, UniProt P30988); format: cell membranes, Membrane; conditions: t47d; note: in other assays of this panel Not Active means under 50% inhibition at 10 µM
T2 sequence (P30988 whole entry): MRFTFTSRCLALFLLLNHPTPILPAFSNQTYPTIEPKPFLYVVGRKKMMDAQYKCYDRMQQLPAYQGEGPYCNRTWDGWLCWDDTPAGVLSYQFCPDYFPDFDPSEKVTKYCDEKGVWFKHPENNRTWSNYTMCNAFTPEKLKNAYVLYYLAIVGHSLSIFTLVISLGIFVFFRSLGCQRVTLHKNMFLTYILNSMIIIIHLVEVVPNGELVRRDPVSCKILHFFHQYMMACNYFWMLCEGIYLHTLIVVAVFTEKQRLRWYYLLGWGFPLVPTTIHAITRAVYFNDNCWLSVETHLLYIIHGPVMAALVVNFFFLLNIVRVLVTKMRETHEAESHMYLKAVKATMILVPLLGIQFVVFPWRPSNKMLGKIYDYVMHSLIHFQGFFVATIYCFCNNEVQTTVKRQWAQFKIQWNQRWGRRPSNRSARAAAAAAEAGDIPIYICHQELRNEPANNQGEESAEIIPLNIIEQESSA

[4] = target: T3, 5-hydroxytryptamine receptor 2C (Homo sapiens, UniProt P28335); assay: DRUGMATRIX: Serotonin (5-Hydroxytryptamine) 5-HT2C radioligand binding (ligand: [3H] Mesulergine); format: cell membranes, CHO-K1, Membrane; conditions: cho-k1; Not Active = under 50% inhibition at 10 µM
T3 sequence (P28335 whole entry): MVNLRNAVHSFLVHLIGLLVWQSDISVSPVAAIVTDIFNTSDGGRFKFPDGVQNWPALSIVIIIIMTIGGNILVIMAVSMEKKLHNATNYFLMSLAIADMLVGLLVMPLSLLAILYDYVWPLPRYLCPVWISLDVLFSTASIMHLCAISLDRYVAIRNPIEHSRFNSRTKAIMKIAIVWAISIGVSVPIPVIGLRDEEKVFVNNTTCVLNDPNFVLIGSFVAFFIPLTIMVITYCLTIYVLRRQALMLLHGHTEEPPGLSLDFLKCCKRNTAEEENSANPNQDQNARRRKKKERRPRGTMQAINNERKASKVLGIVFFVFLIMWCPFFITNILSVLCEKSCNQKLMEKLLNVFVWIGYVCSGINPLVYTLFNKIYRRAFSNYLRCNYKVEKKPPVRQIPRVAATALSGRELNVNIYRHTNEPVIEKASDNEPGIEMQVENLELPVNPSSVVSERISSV

[5] = target: Prostaglandin G/H synthase 1 (Homo sapiens, UniProt P23219); assay: biochemical; format: tissue-based, Platelet; conditions: platelet;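 note: inhibition of COX-1 enzyme activity, with arachidonic acid supplied as substrate; in other assays of this panel Not Active means under 50% inhibition at 10 µM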
[6] = target: T4, Endothelin-1 receptor (Homo sapiens, UniProt P25101); format: cell membranes, Membrane; conditions: cho-k1; note: in other assays of this panel Not Active means under 50% inhibition at 10 µM
T4 sequence (P25101 whole entry): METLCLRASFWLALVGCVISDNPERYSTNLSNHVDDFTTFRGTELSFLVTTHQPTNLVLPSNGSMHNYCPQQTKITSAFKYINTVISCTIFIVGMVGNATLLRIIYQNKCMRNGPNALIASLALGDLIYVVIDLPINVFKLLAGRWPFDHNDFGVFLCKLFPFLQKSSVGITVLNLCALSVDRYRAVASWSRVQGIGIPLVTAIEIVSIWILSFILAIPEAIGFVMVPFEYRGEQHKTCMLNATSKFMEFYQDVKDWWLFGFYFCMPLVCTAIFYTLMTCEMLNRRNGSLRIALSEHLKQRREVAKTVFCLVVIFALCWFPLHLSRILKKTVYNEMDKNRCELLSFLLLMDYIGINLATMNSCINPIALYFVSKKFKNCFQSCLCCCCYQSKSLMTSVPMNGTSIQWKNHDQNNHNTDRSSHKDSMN

[7] = DRUGMATRIX: Glutamate, AMPA radioligand binding (ligand: [3H] AMPA); format: cell membranes, Rattus norvegicus, Wistar, Cerebral cortex, Membrane; conditions: Not Active = under 50% inhibition at 10 µM
[8] = DRUGMATRIX: Interleukin IL-1 radioligand binding (ligand: [125I] interleukin 1beta); format: cell membranes, Membrane; conditions: nih3t3; Not Active = under 50% inhibition at 10 µM
[9] = target: T5, Amine oxidase [flavin-containing] A (Homo sapiens, UniProt P21397); assay: DRUGMATRIX: Monoamine Oxidase MAO-A enzyme inhibition (substrate: Kynuramine); set-up: species or system BTI-TN-5B1-4; conditions: bti-tn-5b1-4; Not Active = under 50% inhibition at 10 µM
T5 sequence (P21397 whole entry): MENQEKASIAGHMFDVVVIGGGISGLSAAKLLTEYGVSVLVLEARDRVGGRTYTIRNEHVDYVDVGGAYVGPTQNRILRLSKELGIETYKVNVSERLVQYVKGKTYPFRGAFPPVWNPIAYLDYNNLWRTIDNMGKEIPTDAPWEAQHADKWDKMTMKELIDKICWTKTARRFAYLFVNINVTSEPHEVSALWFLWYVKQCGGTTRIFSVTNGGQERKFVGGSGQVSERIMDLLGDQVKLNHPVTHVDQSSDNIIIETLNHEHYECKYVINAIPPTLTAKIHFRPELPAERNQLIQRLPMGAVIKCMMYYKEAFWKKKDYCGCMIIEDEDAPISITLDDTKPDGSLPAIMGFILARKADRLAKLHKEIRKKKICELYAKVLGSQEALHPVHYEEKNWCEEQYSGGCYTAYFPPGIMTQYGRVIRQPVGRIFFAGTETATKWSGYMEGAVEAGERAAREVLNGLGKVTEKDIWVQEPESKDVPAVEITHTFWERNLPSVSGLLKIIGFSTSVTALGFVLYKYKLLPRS

[10] = target: Mitogen-activated protein kinase 14 (Homo sapiens, UniProt Q16539); set-up: species or system Escherichia coli;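 note: inhibition of p38alpha enzyme activity in a biochemical kinase assay, with myelin basic protein serving as substrate; in other assays of this panel Not Active means under 50% inhibition at 10 µM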
Sequence of Mitogen-activated protein kinase 14 (Q16539 whole entry): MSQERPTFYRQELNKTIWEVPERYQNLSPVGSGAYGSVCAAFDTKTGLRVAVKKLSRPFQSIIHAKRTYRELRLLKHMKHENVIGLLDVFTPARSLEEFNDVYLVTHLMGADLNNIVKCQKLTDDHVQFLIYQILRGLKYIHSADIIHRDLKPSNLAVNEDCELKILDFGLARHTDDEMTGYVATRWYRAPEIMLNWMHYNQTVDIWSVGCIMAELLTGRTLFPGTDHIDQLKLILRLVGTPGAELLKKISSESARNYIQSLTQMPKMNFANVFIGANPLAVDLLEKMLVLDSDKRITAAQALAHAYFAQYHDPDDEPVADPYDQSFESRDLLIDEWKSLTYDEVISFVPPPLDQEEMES

Sequence of Prostaglandin G/H synthase 1 (P23219 whole entry): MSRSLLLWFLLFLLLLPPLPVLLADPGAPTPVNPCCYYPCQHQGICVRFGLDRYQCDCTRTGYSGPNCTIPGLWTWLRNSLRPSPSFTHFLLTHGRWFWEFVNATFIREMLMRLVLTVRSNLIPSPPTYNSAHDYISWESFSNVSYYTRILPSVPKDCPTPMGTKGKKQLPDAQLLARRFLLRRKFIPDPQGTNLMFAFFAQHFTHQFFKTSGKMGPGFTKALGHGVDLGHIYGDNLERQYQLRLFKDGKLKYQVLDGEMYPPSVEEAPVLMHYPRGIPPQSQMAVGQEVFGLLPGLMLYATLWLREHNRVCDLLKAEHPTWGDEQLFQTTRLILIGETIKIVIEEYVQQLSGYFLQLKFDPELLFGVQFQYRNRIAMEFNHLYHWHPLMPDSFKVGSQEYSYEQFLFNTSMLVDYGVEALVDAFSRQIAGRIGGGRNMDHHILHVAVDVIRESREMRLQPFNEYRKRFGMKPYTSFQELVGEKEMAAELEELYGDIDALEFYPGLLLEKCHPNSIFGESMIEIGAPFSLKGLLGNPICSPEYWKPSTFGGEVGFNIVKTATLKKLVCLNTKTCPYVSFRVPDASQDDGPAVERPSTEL

| SMILES | IC50 ([1]; read-out: IC50) | Ki [1] | IC50 [2] | Ki [2] | IC50 [3] | IC50 [4] | IC50 [5] | IC50 [6] | IC50 [7] | Ki [7] | IC50 [8] | Ki [8] | IC50 [9] | IC50 [10] | IC50 [1] |
| --- | --- | --- | --- | --- | --- | --- | --- | --- | --- | --- | --- | --- | --- | --- | --- |
| CC(=O)N1CCN(c2ccc(OCC3COC(Cn4ccnc4)(c4ccc(Cl)cc4Cl)O3)cc2)CC1 (stereo unspecified) [KETOCONAZOLE] | 35.7 µM | 14.5 µM | Not Active | Not Active | Not Active | Not Active | Not Active | Not Active | Not Active | Not Active | Not Active | Not Active | Not Active | Not Active | – |
| C=CCN1CC[C@]23c4c5ccc(O)c4O[C@H]2C(=O)CC[C@@]3(O)[C@H]1C5 [NALOXONE] | – | – | – | – | Not Active | Not Active | Not Active | Not Active | – | – | – | – | Not Active | Not Active | Not Active |
| COCCOC(=O)C1=C(C)NC(C)=C(C(=O)OC(C)C)C1c1cccc([N+](=O)[O-])c1 (stereo unspecified) [NIMODIPINE] | – | – | Not Active | Not Active | Not Active | Not Active | Not Active | Not Active | Not Active | Not Active | Not Active | Not Active | Not Active | Not Active | Not Active |
| CC(C)NCC(O)COc1cccc2ccccc12 (stereo unspecified) [PROPRANOLOL] | – | – | – | – | Not Active | – | Not Active | Not Active | – | – | – | – | Not Active | Not Active | Not Active |
| COCCCOc1ccnc(C[S+]([O-])c2nc3ccccc3[nH]2)c1C (stereo unspecified) [RABEPRAZOLE] | – | – | Not Active | Not Active | Not Active | Not Active | Not Active | Not Active | Not Active | Not Active | Not Active | Not Active | Not Active | Not Active | Not Active |
| O=C(c1ccc(OCCN2CCCCC2)cc1)c1c(-c2ccc(O)cc2)sc2cc(O)ccc12 [RALOXIFENE] | 2.2 µM | 0.892 µM | Not Active | Not Active | Not Active | – | Not Active | Not Active | Not Active | Not Active | Not Active | Not Active | Not Active | Not Active | – |
| CNC(=C[N+](=O)[O-])NCCSCc1ccc(CN(C)C)o1 [RANITIDINE] | – | – | Not Active | Not Active | Not Active | Not Active | Not Active | Not Active | Not Active | Not Active | Not Active | Not Active | Not Active | Not Active | Not Active |
| CC(C)(C)c1ccc(C(O)CCCN2CCC(C(O)(c3ccccc3)c3ccccc3)CC2)cc1 (stereo unspecified) [TERFENADINE] | – | – | Not Active | Not Active | Not Active | – | Not Active | Not Active | Not Active | Not Active | Not Active | Not Active | Not Active | Not Active | Not Active |
